{"source": "patent US20240174647A1", "about": "(NEURON23, INC., priority 2022, published 2024)", "data": [{"biological_target": "wt human LRRK2, catalytic site (Homo sapiens (Human), UniProt Q5S007)", "sequence (Q5S007 1879-2138)": "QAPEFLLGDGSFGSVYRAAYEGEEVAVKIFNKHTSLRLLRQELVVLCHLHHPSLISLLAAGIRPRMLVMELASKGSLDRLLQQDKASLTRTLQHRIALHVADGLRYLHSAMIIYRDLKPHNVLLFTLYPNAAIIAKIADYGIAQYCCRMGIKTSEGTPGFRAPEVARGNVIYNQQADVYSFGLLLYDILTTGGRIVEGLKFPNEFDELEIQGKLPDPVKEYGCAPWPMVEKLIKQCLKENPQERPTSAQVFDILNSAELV", "assay": "TR-FRET LanthaScreen Tb Kinase Activity Assay (LRRK2 kinase inhibition)", "format": "biochemical", "settings": "2 nM wt human LRRK2, 400 nM fluorescein-ERM (LRRKtide) peptide, 38 μM ATP, 120 minutes at room temperature", "summary_of_the_method": "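LanthaScreen TR-FRET with 2 nM wt human LRRK2 catalytic site, 400 nM fluorescein-ERM (LRRKtide) peptide and 38 µM ATP in Kinase Buffer A; 120 min at room temperature. Phosphorylation detected with EDTA and Tb-anti-pLRRKtide after 60 min; IC50 from emission ratios.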", "units": {"IC50": "nM"}, "values": [{"smiles": "FCCNc1nc(Nc2cccc3c2cnn3CC(F)F)ncc1C(F)(F)F", "note": "[Example 142, N^2-[1-(2,2-difluoroethyl)indazol-4-yl]-N^4-(2-fluoroethyl)-5-(trifluoromethyl) pyrimidine-2,4-diamine]", "IC50": "< 50"}, {"smiles": "CCS(=O)(=O)n1ncc2c(Nc3ncc(C(F)(F)F)c(NC4CC4)n3)cccc21", "note": "[Example 143, N^4-cyclopropyl-N^2-(1-ethylsulfonylindazol-4-yl)-5-(trifluoromethyl)pyrimidine-2,4-diamine]", "IC50": "< 50"}, {"smiles": "CC(C)(C#N)n1ncc2c(Nc3ncc(C(F)(F)F)c(NCCF)n3)cccc21", "note": "[Example 144, 2-(4-((4-((2-fluoroethyl)amino)-5-(trifluoromethyl)pyrimidin-2-yl)amino)-1H-indazol-1-yl)-2-methylpropanenitrile]", "IC50": "< 50"}, {"smiles": "COCCNc1nc(Nc2cccc3c2cnn3S(=O)(=O)C2CC2)ncc1C(F)(F)F", "note": "[Example 145, N^2-(1-cyclopropylsulfonylindazol-4-yl)-N^4-(2-methoxyethyl)-5-(trifluoromethyl) pyrimidine-2,4-diamine]", "IC50": "< 50"}, {"smiles": "CC(C)(O)Cn1ncc2c(Nc3ncc(C(F)(F)F)c(NC4CC4)n3)cccc21", "note": "[Example 146, 1-[4-[[4-(cyclopropylamino)-5-(trifluoromethyl)pyrimidin-2-yl]amino]indazol-1-yl]-2-methyl-propan-2-ol]", "IC50": "< 50"}, {"smiles": "CCNc1nc(Nc2cccc3c2cnn3CC(F)F)nc2[nH]cc(Cl)c12", "note": "[Example 147, 5-chloro-N^2-(1-(2,2-difluoroethyl)-1H-indazol-4-yl)-N^4-ethyl-7H-pyrrolo[2,3-d]pyrimidine-2,4-diamine]", "IC50": "< 50"}, {"smiles": "CS(=O)(=O)n1ncc2c(Nc3ncc(C(F)(F)F)c(N[C@@H]4CCOC4)n3)cccc21", "note": "[Example 148, (R)—N^2-(1-(methylsulfonyl)-1H-indazol-4-yl)-N-(tetrahydrofuran-3-yl)-5-(trifluoromethyl)pyrimidine-2,4-diamine]", "IC50": "< 50"}, {"smiles": "CS(=O)(=O)n1ncc2c(Nc3ncc(C(F)(F)F)c(N[C@H]4CCOC4)n3)cccc21", "note": "[Example 149, (S)—N^2-(1-(Methylsulfonyl)-1H-indazol-4-yl)-N^4-(tetrahydrofuran-3-yl)-5-(trifluoromethyl)pyrimidine-2,4-diamine]", "IC50": "< 50"}, {"smiles": "CS(=O)(=O)n1ncc2c(Nc3ncc(C(F)(F)F)c(NC4CCC4)n3)cccc21", "note": "[Example 150, N^4-cyclobutyl-N^2-(1-methylsulfonylindazol-4-yl)-5-(trifluoromethyl)pyrimidine-2,4-diamine]", "IC50": "< 50"}, {"smiles": "CCNc1nc(Nc2cccc3c2cnn3S(C)(=O)=O)nc2[nH]cc(Cl)c12", "note": "[Example 151, 5-chloro-N^4-ethyl-N^2-(1-methylsulfonylindazol-4-yl)-7H-pyrrolo[2,3-d]pyrimidine-2,4-diamine]", "IC50": "< 50"}, {"smiles": "CCNc1nc(Nc2cccc3c2cnn3S(C)(=O)=O)ncc1Cl", "note": "[Example 152, 5-chloro-N4-ethyl-N^2-(1-(methylsulfonyl)-1H-indazol-4-yl)pyrimidine-2,4-diamine]", "IC50": "< 50"}, {"smiles": "O=S(=O)(C1CC1)n1ncc2c(Nc3ncc(C(F)(F)F)c(NC4CC4)n3)ccc(F)c21", "note": "[Example 153, N^4-cyclopropyl-N^2-(1-(cyclopropylsulfonyl)-7-fluoro-1H-indazol-4-yl)-5-(trifluoromethyl) pyrimidine-2,4-diamine]", "IC50": "< 50"}, {"smiles": "CCNc1nc(Nc2cccc3c2cnn3C(C)(C)C#N)ncc1C(F)(F)F", "note": "[Example 154, 2-(4-((4-(ethylamino)-5-(trifluoromethyl)pyrimidin-2-yl)amino)-1H-indazol-1-yl)-2-methylpropanenitrile]", "IC50": "< 50"}, {"smiles": "COCCNc1nc(Nc2cccc3c2cnn3C(C)(C)C#N)ncc1C(F)(F)F", "note": "[Example 155, 2-[4-[[4-(2-methoxyethylamino)-5-(trifluoromethyl)pyrimidin-2-yl]amino]indazol-1-yl]-2-methyl-propanenitrile]", "IC50": "< 50"}, {"smiles": "CCNc1nc(Nc2cccc3c2cnn3C(C)(C)C#N)nc2[nH]cc(Cl)c12", "note": "[Example 156, 2-(4-((5-chloro-4-(ethylamino)-7H-pyrrolo[2,3-d]pyrimidin-2-yl)amino)-1H-indazol-1-yl)-2-methylpropanenitrile]", "IC50": "< 50"}, {"smiles": "CC(C)(C#N)n1ncc2c(Nc3ncc(C(F)(F)F)c(NC4CC(O)C4)n3)cccc21", "note": "(stereo not drawn) [Example 157, 2-[4-[[4-[(3-hydroxycyclobutyl)amino]-5-(trifluoromethyl)pyrimidin-2-yl]amino]indazol-1-yl]-2-methyl-propanenitrile]", "IC50": "< 50"}, {"smiles": "CCOc1nc(Nc2cccc3c2cnn3S(C)(=O)=O)nc2[nH]cc(Cl)c12", "note": "[Example 158, 5-chloro-4-ethoxy-N-(1-methylsulfonylindazol-4-yl)-7H-pyrrolo [2,3-d]pyrimidin-2-amine]", "IC50": "< 50"}, {"smiles": "O=S(=O)(C1CC1)n1ncc2c(Nc3ncc(C(F)(F)F)c(NC4CC4)n3)ccnc21", "note": "[Example 159, N^4-cyclopropyl-N^2-(1-(cyclopropylsulfonyl)-1H-pyrazolo[3,4-b]pyridin-4-yl)-5-(trifluoromethyl)pyrimidine-2,4-diamine]", "IC50": "< 50"}, {"smiles": "FC(F)(F)c1cnc(Nc2ccc3c4c2cnn4CCCO3)nc1NC1CC1", "note": "[Example 160, N^4-cyclopropyl-N^2-(9-oxa-1,2-diazatricyclo[6.4.1.04,13]trideca-2,4,6,8(13)-tetraen-5-yl)-5-(trifluoromethyl)pyrimidine-2,4-diamine]", "IC50": "< 50"}, {"smiles": "CNc1nc(Nc2ccc3c4c2cnn4CCCO3)ncc1C(F)(F)F", "note": "[Example 161]", "IC50": "< 50"}, {"smiles": "CCOc1nc(Nc2cccc3c2cnn3C(C)(C)C#N)nc2[nH]cc(Cl)c12", "note": "[Example 162, 2-[4-[(5-chloro-4-ethoxy-7H-pyrrolo[2,3-d]pyrimidin-2-yl)amino]indazol-1-yl]-2-methyl-propanenitrile]", "IC50": "< 50"}, {"smiles": "CS(=O)(=O)CCn1ncc2c(Nc3ncc(C(F)(F)F)c(NC4CCC4)n3)cccc21", "note": "[Example 163, N^4-cyclobutyl-N^2-(1-(2-(methylsulfonyl)ethyl)-1H-indazol-4-yl)-5-(trifluoromethyl)pyrimidine-2,4-diamine]", "IC50": "< 50"}, {"smiles": "CCNc1nc(Nc2cccc3c2cnn3CC(C)(C)O)ncc1C(F)(F)F", "note": "[Example 164, 1-[4-[[4-(ethylamino)-5-(trifluoromethyl)pyrimidin-2-yl]amino]indazol-1-yl]-2-methyl-propan-2-ol]", "IC50": "< 50"}, {"smiles": "CCOc1nc(Nc2cccc3c2cnn3CC(F)F)nc2[nH]cc(Cl)c12", "note": "[Example 165, 5-chloro-N-[1-(2,2-difluoroethyl)indazol-4-yl]-4-ethoxy-7H-pyrrolo[2,3-d]pyrimidin-2-amine]", "IC50": "< 50"}, {"smiles": "C[C@@]1(n2ncc3c(Nc4ncc(C(F)(F)F)c(NC5CC5)n4)cccc32)CCOC1=O", "note": "[Example 166, (R)-3-(4-((4-(cyclopropylamino)-5-(trifluoromethyl)pyrimidin-2-yl)amino)-1H-indazol-1-yl)-3-methyldihydrofuran-2(3H)-one]", "IC50": "< 50"}, {"smiles": "C[C@]1(n2ncc3c(Nc4ncc(C(F)(F)F)c(NC5CC5)n4)cccc32)CCOC1=O", "note": "[Example 167, (S)-3-(4-((4-(cyclopropylamino)-5-(trifluoromethyl)pyrimidin-2-yl)amino)-1H-indazol-1-yl)-3-methyldihydrofuran-2(3H)-one]", "IC50": "< 50"}, {"smiles": "FC(F)(F)c1cnc(Nc2cccc3c2cnn3CC2CC2)nc1NC1CC1", "note": "[Example 168, N^4-cyclopropyl-N^2-(1-(cyclopropylmethyl)-1H-indazol-4-yl)-5-(trifluoromethyl)pyrimidine-2,4-diamine]", "IC50": "< 50"}]}]}
